Laboratory results taken from PubChem BioAssay AID1259332 (Broad Institute, 2017).
“And” between values parts separate entries of the source, which are not always exact repeats. Equal entries are not always repeated. The source made the active and inactive calls. No rule for the calls is given here.

Tested on: B cell line, CD40 signaling inhibition reporter
Assay: CD40 pathway inhibition in B cells – B cell lineage, dose response (AID 1259332);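 also: cells stimulated with CD40 ligand tCD40L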

Row | SMILES | AC50
1 | CS(=O)(=O)c1ccc(C(=O)OCC(=O)NC(=O)C2COc3ccccc3O2)cc1[N+](=O)[O-] (stereo not drawn) | 10.2 µM
2 | O=C(C1CC1)N1C[C@@H]2N[C@H](C1)[C@@H]2c1ccc(-c2ccncc2)cc1 | 5.72 µM
3 | COc1ccc(C(=O)O/N=C2\C(=O)N(C)c3ccccc32)cc1 | 1.84 µM
4 | CC[C@H]1CN2CCc3cc(OC)c(OC)cc3C2C[C@@H]1CC1NCCc2cc(OC)c(OC)cc21 (stereo partly drawn) | 0.0205 µM
5 | [O-]C(=C(C(=S)Nc1cccc2ccccc12)[n+]1ccccc1)c1ccc2c(c1)OCCO2 | > 20 µM (inactive)
6 | c1ccc2nc(-c3nc4ccccc4o3)ccc2c1 | 4.54 µM
7 | COc1cc2c(cc1OC)C(=O)C(Br)CC2 (stereo not drawn) | 3.76 µM
8 | Cc1ccsc1C(=O)OCC(=O)c1cc(C)n(CC2CCCO2)c1C (stereo not drawn) | 0.124 µM
9 | CCCCCN1C=CC(=C2C(=O)c3ccccc3C2=O)C=C1 | 0.127 µM
10 | C1CCC(C(CC2CCCCN2)C2CCCCC2)CC1 (stereo not drawn) | 2.39 µM
11 | Cc1noc(C)c1S(=O)(=O)N(C)C[C@H]1OCc2ccccc2-c2c(n(C)c3ccccc23)C(=O)N([C@@H](C)CO)C[C@H]1C | 11.2 µM
12 | Oc1ccc2c(c1)OCC1(O)Cc3cc(O)c(O)cc3C21 (stereo not drawn) | 2.81 µM
13 | C[C@@H]1CN([C@@H](C)CO)C(=O)c2cc(C#CCc3ccccc3)cnc2O[C@@H]1CN(C)C(=O)C1CCOCC1 | 7.23 µM
14 | CC1CCOC(=O)C=CC=CC(=O)OC2CC3OC4C5OC5(C)C(O)CC4(COC(=O)C1O)C2(C)C31CO1 (stereo not drawn) | 0.0446 µM
15 | COc1cccc(/C=N/Nc2ccc(C(=O)O)cc2)c1O | 1.33 µM
16 | CCS(=O)(=O)N1Cc2ccccc2CC1C(=O)Nc1nc2ccccc2s1 (stereo not drawn) | 10.9 µM
17 | Cc1noc(C)c1S(=O)(=O)Nc1ccc2c(c1)C(=O)N([C@@H](C)CO)C[C@@H](C)[C@@H](CN(C)C(=O)Nc1cccc3ccccc13)OCCCC[C@H](C)O2 | 1.52 µM
18 | O=C(C1CCC1)N1CCc2cc(S(=O)(=O)N3CCCCC3)ccc21 | > 20 µM (inactive)
19 | COc1ccc2c3c([nH]c2c1)[C@H](CO)N(C(=O)Nc1cccc(F)c1)CC31CCN(S(=O)(=O)c2cccc(C)c2)CC1 | > 20 µM (inactive)
20 | CCN(CC)CCCNc1nc2ccccc2c2[nH]c3ccc(OC)cc3c12 | 1.1 µM
21 | Cc1ccc(S(=O)(=O)N[C@@H](Cc2ccccc2)C(=O)CCl)cc1 | 2.99 µM
22 | COc1ccc(CC2C(=O)NC(C)C(=O)N(C)C3C(=O)N(C)C(Cc4ccc(O)c(c4)Oc4ccc(cc4)C3O)C(=O)NC(C)C(=O)NC(C)C(=O)N2C)cc1 (stereo not drawn) | 0.00902 µM
23 | N#C[C@@H]1[C@H](c2ccc(C#CC3CCCCC3)cc2)[C@@H](CO)N1C(=O)Nc1ccc(F)cc1 | 10.4 µM
24 | Cn1cnc([N+](=O)[O-])c1S(=O)(=O)Oc1cccc2ccccc12 | 0.368 µM

Row | SMILES | AC50
25 | CCOc1ncccc1C(=O)OC(C)C(=O)Nc1ccc(Cl)cn1 (stereo not drawn) | 10.1 µM
26 | Cc1cccc(-c2nc3cc(NC(=O)C4CCCO4)ccc3o2)c1 (stereo not drawn) | > 20 µM (inactive)
27 | N#C[C@@H]1[C@H](c2ccc(C#Cc3ccccc3F)cc2)[C@@H](CO)N1C(=O)c1cccnc1 | 4.37 µM
28 | CC(=O)NC12CC3CC(C1)CC(C(=O)OCC(=O)c1ccc4c(c1)OCCO4)(C3)C2 | 6.31 µM
29 | CCOC(=O)c1c(SCCN2CCCC2)n(-c2ccccc2)c(=S)n(-c2ccccc2)c1=O | > 20 µM (inactive)
30 | CC1CC(C)(C)Nc2ccc(OC(=O)c3ccco3)cc21 (stereo not drawn) | 3.23 µM
31 | CC(C)Cc1ccc(C(C)CC2=CCC(CN(C)C)C2=O)cc1 (stereo not drawn) | 3.99 µM
32 | C=C1C(=O)OC2C=C(CO)C3OC3C3OC3(C)CC(OC(=O)/C(=C/C)COC(C)=O)C12 (stereo not drawn) | 2.02 µM
33 | O=S(c1ccccc1O)S(=O)c1ccccc1O (stereo not drawn) | 4.55 µM
34 | O=C(Nc1cccc(N2C(=O)C=CC2=O)c1)c1cccs1 | 1.68 µM
35 | COC(=O)C12OCC34C(CC5C(C)=C(O)C(=O)CC5(C)C3C(O)C1O)OC(=O)C(OC(=O)C=C(C)C)C24 (stereo not drawn) | 0.479 µM
36 | C[C@@H]1CN([C@H](C)CO)C(=O)c2ccccc2-c2ccccc2CO[C@@H]1CN(C)C(=O)c1cc(Cl)cc(Cl)c1 | 7.99 µM
37 | CC1CC(C)C(=O)C(C(O)CC2CC(=O)NC(=O)C2)C1 (stereo not drawn) | 0.196 µM
38 | COCCn1c(C)cc(C(=O)COC(=O)c2ccc(Cl)c(S(N)(=O)=O)c2)c1C | > 20 µM (inactive)
39 | c1ccn2cc(-c3ccc4c(c3)OCCO4)nc2c1 | 10.2 µM
40 | N#CC(C#N)=NNc1ccc(OC(F)(F)F)cc1 | 3.97 µM
41 | CCOC(=O)c1cc2c(ccn2C)n1Cc1ccc(C#N)cc1 | > 20 µM (inactive)
42 | CNC(=S)NN=C(C)CCCC(C)=NNC(=S)NC | 1.26 µM
43 | Cc1ccc(OC(=O)N(C)C[C@@H]2OCc3ccccc3-c3c(n(C)c4ccccc34)C(=O)N([C@@H](C)CO)C[C@H]2C)cc1 | 7.62 µM
44 | COc1ccc(C[C@H]2NC[C@H](O)[C@H]2OC(C)=O)cc1 | 0.0235 µM
45 | C[C@H]1CN([C@@H](C)CO)C(=O)c2cccc(NC(=O)Nc3ccc(F)cc3)c2O[C@H]1CN(C)S(=O)(=O)c1ccc(Cl)cc1 | 4.87 µM
46 | COc1cccc(NC(=O)N2CC(=O)N3[C@H](CO)[C@@H](c4ccc(C#CCC5CCCC5)cc4)[C@H]3C2)c1 | > 7 µM (inactive)
47 | N#C[C@@H]1[C@H](c2ccc(C#Cc3ccccc3F)cc2)[C@@H](CO)N1C(=O)C1CC1 | 1.59 µM
48 | C[C@H](CO)N1C[C@H](C)[C@H](CN(C)S(=O)(=O)c2ccc(Cl)cc2)Oc2c(NC(=O)Nc3ccc(F)cc3)cccc2C1=O | 6.47 µM

Row | SMILES | AC50
49 | O=C(OC1CCOC1=O)c1ccccc1C(=O)c1ccc(Cl)c([N+](=O)[O-])c1 (stereo not drawn) | > 20 µM (inactive)
50 | Cc1ccc2nc(C(F)(F)F)c(C#N)c(N)c2c1 | 6.7 µM
51 | COc1ccc2c3c([nH]c2c1)[C@H](CO)N(C(=O)Nc1ccc(F)cc1)CC31CCN(C(=O)c2ccccc2F)CC1 | 6.92 µM
52 | O=C(c1ccc(Nc2nccc(-c3cc4ccccc4s3)n2)cc1)N1CCC(N2CCCC2)CC1 | 1.07 µM and 0.541 µM
53 | CC(C)(C)NCC(=Cc1ccccc1)C(=O)c1ccccc1 | 7.22 µM
54 | CC(=O)OC1C(=O)OCC23CCC4(C)OC4C2OC2CC(OC(=O)C=CC=CC(=O)OCCC1C)C3(C)C21CO1 (stereo not drawn) | 0.0056 µM
55 | O=C1CC(=O)OC(c2ccc([N+](=O)[O-])cc2)O1 | 0.629 µM
56 | N#C[C@H]1N[C@H](CO)[C@H]1c1ccc(C#CC2CCCC2)cc1 | 6.27 µM
57 | CC(C)(C)[C@H](N)C(=O)N[C@H]1CCC2C3CC=C4C[C@@H](O)CC[C@]4(C)C3CC[C@@]21C (stereo partly drawn) | 5.04 µM
58 | CCN(CC)c1ccc(C(NC(=O)C(C)C)c2ccc3cccnc3c2O)cc1 (stereo not drawn) | > 20 µM (inactive)
59 | C[C@H]1CN([C@@H](C)CO)C(=O)Cc2cc(NC(=O)Cc3cn(C)c4ccccc34)ccc2O[C@H]1CN(C)Cc1ccc(C(F)(F)F)cc1 | > 20 µM (inactive)
60 | O=C(C1CCCC1)N1CC(=O)N2[C@@H](CO)[C@@H](c3ccc(C#CCc4ccccc4)cc3)[C@@H]2C1 | 1.95 µM
61 | CN(C)c1ccc(C(=C2C=CC(=[N+](C)C)C=C2)c2ccc(N(C)C)cc2)cc1 | 0.105 µM
62 | Cc1cc(OCC(=O)OCC(=O)NCc2ccco2)ccc1Cl | 9.63 µM
63 | C[C@H](CO)N1C[C@H](C)[C@@H](CN(C)Cc2ccc(Oc3ccccc3)cc2)Oc2c(NC(=O)CCC(F)(F)F)cccc2C1=O | 8.77 µM
64 | O=C1CCCCC1Sc1nnc(-c2ccc3c(c2)OCO3)o1 (stereo not drawn) | 0.951 µM
65 | CC1CC(C)CC(C)C(O)C(C#N)=CC=CCC(C2CCCC2C(=O)O)OC(=O)CC(O)C(C)C1 (stereo not drawn) | < 0.0005 µM
66 | COc1ccc(S(=O)(=O)Nc2ccc3c(c2)C(=O)N([C@@H](C)CO)C[C@H](C)[C@@H](CN(C)Cc2ccc(C(F)(F)F)cc2)OCCCC[C@@H](C)O3)cc1 | 7.3 µM
67 | CN1C(=O)c2cc(NC(=O)c3cccc(Cl)c3)ccc2OC[C@@H]2O[C@@H](CC(=O)NC3CCCCC3)CC[C@H]21 | > 20 µM (inactive)
68 | CCOc1ccc(OCc2cccc(C(=O)N3CCOCC3)c2)cc1 | 2.92 µM
69 | COc1ccc(C=Cc2ccc3ccccc3n2)c(OC)c1 | 11.3 µM
70 | O=C(C[C@@H]1C[C@H]2c3cc(NC(=O)Nc4ccc(C(F)(F)F)cc4)ccc3O[C@H]2[C@H](CO)O1)NCc1cc(F)ccc1F | > 20 µM (inactive)
71 | Oc1c(Cl)cc(Cl)c(Cl)c1Cc1c(O)c(Cl)cc(Cl)c1Cl | 3.6 µM
72 | C[C@H]1CN([C@@H](C)CO)C(=O)c2ccccc2-c2ccccc2CO[C@@H]1CN(C)Cc1ccccc1C(F)(F)F | 7.28 µM

Row | SMILES | AC50
73 | Cc1ccnc(NC(=O)c2ccc(OCC3CCCO3)cc2)c1 (stereo not drawn) | 5.23 µM
74 | C[C@H](CO)N1C[C@H](C)[C@H](CN(C)S(=O)(=O)c2ccc([N+](=O)[O-])cc2)OCc2ccccc2-c2c(n(C)c3ccccc23)C1=O | 9.57 µM
75 | CC12CCC3C(CCC4(O)CC(O)CCC34C=O)C1(O)CCC2C1=CC(=O)OC1 (stereo not drawn) | 3.86 µM
76 | COC(=O)C[C@](O)(CCCC(C)(C)O)C(=O)O[C@@H]1C(OC)=C[C@]23CCCN2CCc2cc4c(cc2[C@H]13)OCO4 | < 0.0046 µM
77 | Cc1nc(C)c(C(=O)Nc2ncc([N+](=O)[O-])s2)o1 | 9.08 µM
78 | C[C@@H]1CN([C@@H](C)CO)C(=O)c2c(c3ccccc3n2C)-c2ccccc2CO[C@H]1CN(C)C(=O)Nc1ccccc1C(F)(F)F | 9.28 µM
79 | C=C1C(=O)C23C(O)C1CCC2C12CCCC(C)(COC(C)=O)C1C(O)C3(O)OC2 (stereo not drawn) | 0.567 µM
80 | Cc1ccc(OCCn2cnc3c(N)ncnc32)cc1 | 0.649 µM
81 | Cn1cc(C2=C(c3cn(CCCSC(=N)N)c4ccccc34)C(=O)NC2=O)c2ccccc21 | 0.67 µM
82 | Nc1ccc(-c2cccc3c(=O)cc(N4CCOCC4)oc23)cc1 | 10.9 µM
83 | CC(=NNC(=S)N1CC2CCC(CC2)C1)c1nccs1 | > 7 µM (inactive)
84 | COc1ccc(S(=O)(=O)Nc2ccc3c(c2)C(=O)N([C@H](C)CO)C[C@@H](C)[C@@H](CN(C)Cc2ccc(C(F)(F)F)cc2)OCCCC[C@@H](C)O3)cc1 | 8.69 µM
85 | COCC(C)n1c(C)cc(C(=O)COC(=O)c2cccn2C)c1C (stereo not drawn) | 3.06 µM
86 | CC(OC(=O)c1cc(Br)ccc1O)C(=O)Nc1ccc(S(=O)(=O)N2CCCC2)cc1 (stereo not drawn) | 11 µM
87 | O=S(=O)(CCSc1ccccn1)c1nc2ccccc2s1 | 8.22 µM
88 | O=C(COc1cccnc1[N+](=O)[O-])c1ccc(Cl)s1 | 3.2 µM
89 | O=C(Nc1nnc(C2CC2)s1)C1CC(=O)N(c2ccc3c(c2)OCCO3)C1 (stereo not drawn) | > 20 µM (inactive)
90 | N#Cc1cccc(-c2ccc([C@@H]3[C@@H]4CN(S(=O)(=O)c5ccc(-c6ccccc6)cc5)C[C@H]3N4)cc2)c1 | > 20 µM (inactive)
91 | O=C(Nc1ccccc1)N1CC(=O)N2[C@H](CO)[C@@H](c3ccc(C#CC4CCCCC4)cc3)[C@H]2C1 | 11 µM
92 | COc1ccc(C(=O)CCN2CCc3cc(OC)c(OC)cc3C2)cc1 | 5.82 µM
93 | CCCC(=O)NC1=C(Cl)C(=O)c2ccccc2C1=O | 0.935 µM
